# Patent publication US20250382273A1 (INSTITUT NATIONAL DE LA SANTE ET DE LA RECHERCHE MEDICALE, priority 2022, published 2025)
# pEC50: −log10 of the molar value.
# Tested on: M. tuberculosis H37Rv_gfp
# Format: cell-based, Mycobacterium tuberculosis
# Details: in combination with delamanid 4 ng·mL−1, 5 days at 37° C.
row,Structure (SMILES),pEC50
1,"Cc1ccc2nc(NC(=O)[C@@H]3C4C=CC(C4)[C@@H]3C(=O)O)sc2c1 (mixture of isomers) [Example 1, 3-[(6-methyl-1,3-benzothiazol-2-yl)carbamoyl]bicyclo[2.2.1]hept-5-ene-2-carboxylic acid]",6.51
2,"Cc1ccc2nc(N3C(=O)[C@@H]4[C@H](C3=O)[C@@H]3C=C[C@H]4C3)sc2c1 [Example 2, (1R,2S,6R,7S)-4-(6-methyl-1,3-benzothiazol-2-yl)-4-azatricyclo[5.2.1.02,6]dec-8-ene-3,5-dione]",6.38
3,"O=C(Nc1nc2ccc(Oc3ccccc3)cc2s1)[C@@H]1C2C=CC(C2)[C@@H]1C(=O)O (stereo partly drawn) [Example 18, [2-hydroxy-1,1-bis(hydroxymethyl)ethyl]ammonium: (1R,2S,3R,4S)-3-[(6-phenoxy-1,3-benzothiazol-2-yl)carbamoyl]bicyclo[2.2.1]hept-5-ene-2-carboxylate]",6.80

# Tested on: M. tuberculosis H37Rv_gfp
# Format: cell-based, Mycobacterium tuberculosis
# Details: in combination with pretomanid 20 ng·mL−1; 5 days at 37° C.; […]; read-out: EC50 H37Rv_gfp
row,Structure (SMILES),pEC50
1,"Cc1ccc2nc(NC(=O)[C@@H]3C4C=CC(C4)[C@@H]3C(=O)O)sc2c1 (mixture of isomers) [Example 1, 3-[(6-methyl-1,3-benzothiazol-2-yl)carbamoyl]bicyclo[2.2.1]hept-5-ene-2-carboxylic acid]",5.30 to 6.00
2,"Cc1ccc2nc(N3C(=O)[C@@H]4[C@H](C3=O)[C@@H]3C=C[C@H]4C3)sc2c1 [Example 2, (1R,2S,6R,7S)-4-(6-methyl-1,3-benzothiazol-2-yl)-4-azatricyclo[5.2.1.02,6]dec-8-ene-3,5-dione]",> 6.00
3,"O=C(Nc1nc2ccc(Oc3ccccc3)cc2s1)[C@@H]1C2C=CC(C2)[C@@H]1C(=O)O (stereo partly drawn) [Example 18, [2-hydroxy-1,1-bis(hydroxymethyl)ethyl]ammonium: (1R,2S,3R,4S)-3-[(6-phenoxy-1,3-benzothiazol-2-yl)carbamoyl]bicyclo[2.2.1]hept-5-ene-2-carboxylate]",> 6.00
4,"O=C1[C@@H]2[C@H](C(=O)N1c1nc3ccc(-c4ccc(C(F)(F)F)nc4)cc3s1)[C@@H]1C=C[C@H]2C1 [Example 67, (1R,2S,6R,7S)-4-[6-[6-(trifluoromethyl)-3-pyridyl]-1,3-benzothiazol-2-yl]-4-azatricyclo [5.2.1.02,6]dec-8-ene-3,5-dione]",5.30 to 6.00
5,"O=C1[C@@H]2[C@H](C(=O)N1c1nc3ccc(-c4ccsc4)cc3s1)[C@@H]1C=C[C@H]2C1 [Example 68, (1R,2S,6R,7S)-4-[6-(3-thienyl)-1,3-benzothiazol-2-yl]-4-azatricyclo[5.2.1.02,6]dec-8-ene-3,5-dione]",5.30 to 6.00
6,"O=C(Nc1nc2ccc(-c3ccoc3)cc2s1)[C@@H]1C2C=CC(C2)[C@@H]1C(=O)O (some centres unmarked) [Example 69, 3-[[6-(3-furyl)-1,3-benzothiazol-2-yl]carbamoyl]bicyclo[2.2.1]hept-5-ene-2-carboxylic acid]",> 6.00
7,"O=C1[C@@H]2[C@H](C(=O)N1c1nc3ccc(-c4ccoc4)cc3s1)[C@@H]1C=C[C@H]2C1 [Example 70, (1R,2S,6R,7S)-4-[6-(3-furyl)-1,3-benzothiazol-2-yl]-4-azatricyclo[5.2.1.02,6]dec-8-ene-3,5-dione]",5.30 to 6.00
8,"C#CCOc1ccc(-c2ccc3nc(N4C(=O)[C@@H]5[C@H](C4=O)[C@@H]4C=C[C@H]5C4)sc3c2)cc1 [Example 71, (1R,2S,6R,7S)-4-[6-(4-prop-2-ynoxyphenyl)-1,3-benzothiazol-2-yl]-4-azatricyclo[5.2.1.02,6]dec-8-ene-3,5-dione]",> 6.00
9,"C#Cc1ccc2nc(N3C(=O)[C@@H]4[C@H](C3=O)[C@@H]3C=C[C@H]4C3)sc2c1 [Example 72, (1R,2S,6R,7S)-4-(6-ethynyl-1,3-benzothiazol-2-yl)-4-azatricyclo[5.2.1.02,6]dec-8-ene-3,5-dione]",5.30 to 6.00
10,"C#CCOc1ccc2nc(N3C(=O)[C@@H]4[C@H](C3=O)[C@@H]3C=C[C@H]4C3)sc2c1 [Example 73, (1R,2S,6R,7S)-4-(6-prop-2-ynoxy-1,3-benzothiazol-2-yl)-4-azatricyclo[5.2.1.02,6]dec-8-ene-3,5-dione]",> 6.00
11,O=C1[C@@H]2C3C=CC(C3)[C@@H]2C(=O)N1c1nc2c(O)cccc2s1 [Example 74],> 6.00
12,"C#CCOc1cccc2sc(NC(=O)[C@@H]3C4C=CC(C4)[C@@H]3C(=O)O)nc12 (some centres unmarked) [Example 75, 3-[(4-prop-2-ynoxy-1,3-benzothiazol-2-yl)carbamoyl]bicyclo[2.2.1]hept-5-ene-2-carboxylic acid]",> 6.00
13,"C#CCOc1cccc2sc(N3C(=O)[C@@H]4[C@H](C3=O)[C@@H]3C=C[C@H]4C3)nc12 [Example 76, (1R,2S,6R,7S)-4-(4-prop-2-ynoxy-1,3-benzothiazol-2-yl)-4-azatricyclo[5.2.1.02,6]dec-8-ene-3,5-dione]",4.70 to 5.00
14,"O=C(Nc1nc2ccc(C#Cc3ccccc3)cc2s1)[C@@H]1C2C=CC(C2)[C@@H]1C(=O)O (some centres unmarked) [Example 77, 3-[[6-(2-phenylethynyl)-1,3-benzothiazol-2-yl]carbamoyl]bicyclo[2.2.1]hept-5-ene-2-carboxylic acid]",> 6.00
15,"CC(C)(C)C#Cc1ccc2nc(NC(=O)[C@@H]3C4C=CC(C4)[C@@H]3C(=O)O)sc2c1 (some centres unmarked) [Example 78, 3-[[6-(3,3-dimethylbut-1-ynyl)-1,3-benzothiazol-2-yl]carbamoyl]bicyclo [2.2.1]hept-5-ene-2-carboxylic acid]",> 6.00
16,"O=C(Nc1nc2ccc(C#CC3CC3)cc2s1)[C@@H]1C2C=CC(C2)[C@@H]1C(=O)O (some centres unmarked) [Example 79, 3-[[6-(2-cyclopropylethynyl)-1,3-benzothiazol-2-yl]carbamoyl]bicyclo[2.2.1]hept-5-ene-2-carboxylic acid]",> 6.00
17,"O=C(Nc1nc2ccc(-c3cncnc3)cc2s1)[C@@H]1C2C=CC(C2)[C@@H]1C(=O)O (some centres unmarked) [Example 80, 3-[(6-pyrimidin-5-yl-1,3-benzothiazol-2-yl)carbamoyl]bicyclo[2.2.1]hept-5-ene-2-carboxylic acid]",4.70 to 5.00

row,Structure (SMILES),pEC50
1,"O=C(Nc1nc2ccc(-c3ccc4ncccc4c3)cc2s1)[C@@H]1C2C=CC(C2)[C@@H]1C(=O)O (some centres unmarked) [Example 81, 3-[[6-(6-quinolyl)-1,3-benzothiazol-2-yl]carbamoyl]bicyclo[2.2.1]hept-5-ene-2-carboxylic acid]",5.30 to 6.00
2,"Cc1ccnc(Nc2ccc3nc(NC(=O)[C@@H]4C5C=CC(C5)[C@@H]4C(=O)O)sc3c2)c1 (some centres unmarked) [Example 84, 3-[[6-[(4-methyl-2-pyridyl)amino]-1,3-benzothiazol-2-yl]carbamoyl]bicyclo[2.2.1]hept-5-ene-2-carboxylic acid]",5.30 to 6.00
3,"O=C(Nc1nc2ccc(Nc3cc(F)ccn3)cc2s1)[C@@H]1C2C=CC(C2)[C@@H]1C(=O)O (some centres unmarked) [Example 85, 3-[[6-[(4-fluoro-2-pyridyl)amino]-1,3-benzothiazol-2-yl]carbamoyl]bicyclo[2.2.1]hept-5-ene-2-carboxylic acid]",> 6.00
4,"O=C(Nc1nc2ccc(Nc3ccc(F)cn3)cc2s1)[C@@H]1C2C=CC(C2)[C@@H]1C(=O)O (some centres unmarked) [Example 86, 3-[[6-[(5-fluoro-2-pyridyl)amino]-1,3-benzothiazol-2-yl]carbamoyl]bicyclo[2.2.1]hept-5-ene-2-carboxylic acid]",> 6.00
5,"O=C1[C@@H]2C3C=CC(C3)[C@@H]2C(=O)N1c1nc2ccc(Nc3ccc(F)cn3)cc2s1 [Example 87, 4-[6-[(5-fluoro-2-pyridyl)amino]-1,3-benzothiazol-2-yl]-4-azatricyclo[5.2.1.02,6]dec-8-ene-3,5-dione]",> 6.00
6,"O=C(Nc1nc2ccc(Nc3cccc(F)n3)cc2s1)[C@@H]1C2C=CC(C2)[C@@H]1C(=O)O (some centres unmarked) [Example 88, 3-[[6-[(6-fluoro-2-pyridyl)amino]-1,3-benzothiazol-2-yl]carbamoyl]bicyclo[2.2.1]hept-5-ene-2-carboxylic acid]",> 6.00
7,"O=C1[C@@H]2C3C=CC(C3)[C@@H]2C(=O)N1c1nc2ccc(Nc3cccc(F)n3)cc2s1 [Example 89, 4-[6-[(6-fluoro-2-pyridyl)amino]-1,3-benzothiazol-2-yl]-4-azatricyclo[5.2.1.02,6]dec-8-ene-3,5-dione]",5.30 to 6.00
8,"O=C1[C@@H]2C3C=CC(C3)[C@@H]2C(=O)N1c1nc2ccc(Nc3ccnc(C(F)(F)F)c3)cc2s1 [Example 90, 4-[6-[[2-(trifluoromethyl)-4-pyridyl]amino]-1,3-benzothiazol-2-yl]-4-azatricyclo[5.2.1.02,6]dec-8-ene-3,5-dione]",> 6.00
9,"O=C(Nc1nc2ccc(Nc3cncc(C(F)(F)F)c3)cc2s1)[C@@H]1C2C=CC(C2)[C@@H]1C(=O)O (some centres unmarked) [Example 91, 3-[[6-[[5-(trifluoromethyl)-3-pyridyl]amino]-1,3-benzothiazol-2-yl]carbamoyl]bicyclo[2.2.1]hept-5-ene-2-carboxylic acid]",5.30 to 6.00
10,"COc1cc(Nc2ccc3nc(N4C(=O)[C@@H]5C6C=CC(C6)[C@@H]5C4=O)sc3c2)ccn1 [Example 92, 4-[6-[(2-methoxy-4-pyridyl)amino]-1,3-benzothiazol-2-yl]-4-azatricyclo[5.2.1.02,6]dec-8-ene-3,5-dione]",5.30 to 6.00
11,"O=C(Nc1nc2ccc(Nc3ccc(OC(F)(F)F)cn3)cc2s1)[C@@H]1C2C=CC(C2)[C@@H]1C(=O)O (some centres unmarked) [Example 93, 3-[[6-[[5-(trifluoromethoxy)-2-pyridyl]amino]-1,3-benzothiazol-2-yl]carbamoyl]bicyclo[2.2.1]hept-5-ene-2-carboxylic acid]",> 6.00
12,O=C1[C@@H]2C3C=CC(C3)[C@@H]2C(=O)N1c1nc2ccc(Nc3ccc(C(F)(F)F)cn3)cc2s1 [Example 95],> 6.00
13,"O=C(Nc1nc2ccc(Nc3ccc(C(F)(F)F)cn3)cc2s1)[C@@H]1C2C=CC(C2)[C@@H]1C(=O)O (some centres unmarked) [Example 96, 3-[[6-[[5-(trifluoromethyl)-2-pyridyl]amino]-1,3-benzothiazol-2-yl]carbamoyl]bicyclo[2.2.1]hept-5-ene-2-carboxylic acid]",5.30 to 6.00
14,"O=C1[C@@H]2C3C=CC(C3)[C@@H]2C(=O)N1c1nc2ccc(Nc3cccc(C(F)(F)F)n3)cc2s1 [Example 97, 4-[6-[[6-(trifluoromethyl)-2-pyridyl]amino]-1,3-benzothiazol-2-yl]-4-azatricyclo[5.2.1.02,6]dec-8-ene-3,5-dione]",> 6.00
15,"O=C(Nc1nc2ccc(Nc3ccnc(F)c3)cc2s1)[C@@H]1C2C=CC(C2)[C@@H]1C(=O)O (some centres unmarked) [Example 99, 3-[[6-[(2-fluoro-4-pyridyl)amino]-1,3-benzothiazol-2-yl]carbamoyl]bicyclo[2.2.1]hept-5-ene-2-carboxylic acid]",5.00 to 5.30
16,O=C(Nc1nc2ccc(-c3ccc(N4CCCCC4)cc3)cc2s1)[C@@H]1C2C=CC(C2)[C@@H]1C(=O)O (some centres unmarked) [Example 100],> 6.00

# Same assay, conditions: in combination with pretomanid, unit inferred; read-out: average EC50 H37Rv_gfp
row,Structure (SMILES),pEC50
1,"CC(C)(C)C#Cc1ccc2nc(NC(=O)[C@@H]3C4C=CC(C4)[C@@H]3C(=O)O)sc2c1 (some centres unmarked) [Example 78, 3-[[6-(3,3-dimethylbut-1-ynyl)-1,3-benzothiazol-2-yl]carbamoyl]bicyclo [2.2.1]hept-5-ene-2-carboxylic acid]",6.89

# Same assay, conditions: read-out: EC50 H37Rv_gfp
row,Structure (SMILES),pEC50
1,"O=C1[C@@H]2C3C=CC(C3)[C@@H]2C(=O)N1c1nc2ccc(Nc3ccnc(F)c3)cc2s1 [Example 98, 4-[6-[(2-fluoro-4-pyridyl)amino]-1,3-benzothiazol-2-yl]-4-azatricyclo[5.2.1.02,6]dec-8-ene-3,5-dione]",5.00 to 5.30
